Source: patent US20120270905A1, “FLUORINATED 2,6-DIALKYL-3,5-DICYANO-4-(1H-INDAZOL-5-YL)-1,4-DIHYDROPYRIDINES AND METHODS OF USE THEREOF” (BAYER PHARMA AKTIENGESELLSCHAFT, priority 2009, published 2012)

Key:
[1] = target: T1, Recombinant human c-Met protein (Homo sapiens, UniProt P08581); assay: c-Met receptor tyrosine kinase activity assay (NADH read-out); format: biochemical; conditions: c-Met 30 nM, ATP 30 μM, 100 min at 32° C.
T1 construct: purchased Invitrogen
Experimental: c-Met Receptor Tyrosine Kinase Activity Assay (NADH Read-Out):
Recombinant human c-Met protein (Invitrogen, Carlsbad, Calif., USA) is used. As substrate for the kinase reaction the peptide KKKSPGEYVNIEFG (JPT, Germany) is used. For the assay, 1 μL of a 51-fold concentrated solution of the test compound in DMSO is pipetted into a white 384-well microtiter plate (Greiner Bio-One, Frickenhausen, Germany). 25 μL of a solution of c-Met (final concentration 30 nM) and pyruvate kinase/lactate dehydrogenase (Roche Diagnostics, Mannheim, Germany; final concentration 8 mg/L) in assay buffer [3-(N-morpholino)propanesulfonic acid (MOPS), 50 mM, pH 7; MgCl2, 10 mM; bovine serum albumin (BSA), 0.01%; Triton X 100, 0.01%; DTT, 2 mM] are added, and the mixture is incubated for 5 min at room temperature. Then, the kinase reaction is started by the addition of 25 μL of a solution of adenosine triphosphate (ATP, final concentration 30 μM), substrate (final concentration 100 μM), nicotinamide adenine dinucleotide (NADH, final concentration 50 μM) and dithiothreitol (DTT, final concentration 2 mM) in assay buffer, and the resulting mixture is incubated for a reaction time of 100 min at 32° C.
Subsequently, the amount of phosphorylated substrate is evaluated by measurement of the decrease of NADH fluorescence. Therefore, the fluorescence emissions at 465 nm after excitation at 340 nm is measured in a fluorescence reader, e.g. Tecan Ultra (Tecan, Männedorf, Switzerland). The data are normalised (enzyme reaction without inhibitor=0% inhibition; all other assay components but no enzyme=100% inhibition).
Some representative IC50 values are listed in Table 1 below together with corresponding data for a structurally related, non-fluorinated compound from prior art (cf. WO 2008/071451): […]

[2] = Caco-2 permeability assay; format: in vitro ADME; conditions: human, apical to basolateral, test concentration 2 μM, 2 h at 37° C., read-out: Caco-2 permeability PappA-B
From the text: Caco-2 Permeability Assay:
The in vitro permeation of a test compound across a Caco-2 cell monolayer is a well-established assay system to predict the permeability from the gastro-intestinal tract [cf. P. Artursson and J. Karlsson: Correlation between oral drug absorption in humans and apparent drug permeability coefficients in human intestinal epithelial (Caco-2) cells, Biochem. Biophys. 175 (3), 880-885 (1991)]. The permeability of the compounds of the present invention in such Caco-2 cells was deter-mined as described below:
Human Caco-2 cells (ACC No. 169, DSMZ, German Collection of Microorganisms and Cell Cultures, Braunschweig, Germany) are seeded on 24-well insert plates and are allowed to grow for 14-16 days. For permeability studies, the test compounds are dissolved in DMSO and diluted to the final test concentration of 2 μM with transport buffer [Hanks' Buffered Salt Solution, Gibco/Invitrogen, further supplemented with glucose (final concentration 19.9 mM) and HEPES (final concentration 9.8 mM)]. For determination of the apical to basolateral permeability (PappA-B), the test compound solution is added to the apical side of the cell monolayer and transport buffer to the basolateral side of the monolayer; for determination of the basolateral to apical permeability (PappB-A), the test compound solution is added to the basolateral side of the cell monolayer and transport buffer to the apical side of the monolayer. Samples are taken from the donor compartment at the beginning of the experiment to confirm mass balance. After an incubation of 2 h at 37° C., samples are taken from both compartments. Samples are analyzed by LC-MS/MS, and the apparent permeability coefficients are calculated. Lucifer Yellow permeability is assayed for each cell monolayer to ensure cell monolayer integrity, and the permeability of Atenolol (low permeability marker) and Sulfasalazine (marker for active excretion) is determined for each batch as quality control. […]

[3] = target: T2, recombinant kinase domain of the human c-Met (amino acids 960-1390) (Homo sapiens, UniProt P08581); assay: c-Met receptor tyrosine kinase homogeneous time-resolved fluorescence assay (alternative format); format: biochemical; conditions: HTRF format; ATP 10 μM, 30 min at 22° C.
T2 construct: kinase domain of the human c-Met (amino acids 960-1390); His6 (N); made in house; host or cells: insect cells (SF21)
From the text: c-Met Receptor Tyrosine Kinase Homogeneous Time-Resolved Fluorescence Assay (Alternative Format):
The N-terminally His6-tagged recombinant kinase domain of the human c-Met (amino acids 960-1390), expressed in insect cells (SF21) and purified by Ni-NTA affinity chromatography and consecutive size exclusion chromatography (Superdex 200), is used. Alternatively, commercially available c-Met (Millipore) can be used. As substrate for the kinase reaction, the biotinylated poly-Glu,Tyr (4:1) copolymer (#61GT0BLC, Cis Biointernational, Marcoule, France) is used.
For the assay, 50 nL of a 100-fold concentrated solution of the test compound in DMSO is pipetted into a black low-volume 384-well microtiter plate (Greiner Bio-One, Frickenhausen, Germany). […]
The resulting mixture is incubated for 1 h at 22° C. to allow the binding of the biotinylated phosphorylated peptide to the streptavidine-XLent and the PT66-Eu-chelate. Subsequently, the amount of phosphorylated substrate is evaluated by measurement of the resonance energy transfer from the PT66-Eu-chelate to the streptavidine-XLent. Therefore, the fluorescence emissions at 620 nm and 665 nm after excitation at 350 nm are measured in an HTRF reader, e.g. Rubystar (BMG Lab-technologies, Offenburg, Germany) or Viewlux (Perkin-Elmer). […]

T1 sequence (P08581 25-1390): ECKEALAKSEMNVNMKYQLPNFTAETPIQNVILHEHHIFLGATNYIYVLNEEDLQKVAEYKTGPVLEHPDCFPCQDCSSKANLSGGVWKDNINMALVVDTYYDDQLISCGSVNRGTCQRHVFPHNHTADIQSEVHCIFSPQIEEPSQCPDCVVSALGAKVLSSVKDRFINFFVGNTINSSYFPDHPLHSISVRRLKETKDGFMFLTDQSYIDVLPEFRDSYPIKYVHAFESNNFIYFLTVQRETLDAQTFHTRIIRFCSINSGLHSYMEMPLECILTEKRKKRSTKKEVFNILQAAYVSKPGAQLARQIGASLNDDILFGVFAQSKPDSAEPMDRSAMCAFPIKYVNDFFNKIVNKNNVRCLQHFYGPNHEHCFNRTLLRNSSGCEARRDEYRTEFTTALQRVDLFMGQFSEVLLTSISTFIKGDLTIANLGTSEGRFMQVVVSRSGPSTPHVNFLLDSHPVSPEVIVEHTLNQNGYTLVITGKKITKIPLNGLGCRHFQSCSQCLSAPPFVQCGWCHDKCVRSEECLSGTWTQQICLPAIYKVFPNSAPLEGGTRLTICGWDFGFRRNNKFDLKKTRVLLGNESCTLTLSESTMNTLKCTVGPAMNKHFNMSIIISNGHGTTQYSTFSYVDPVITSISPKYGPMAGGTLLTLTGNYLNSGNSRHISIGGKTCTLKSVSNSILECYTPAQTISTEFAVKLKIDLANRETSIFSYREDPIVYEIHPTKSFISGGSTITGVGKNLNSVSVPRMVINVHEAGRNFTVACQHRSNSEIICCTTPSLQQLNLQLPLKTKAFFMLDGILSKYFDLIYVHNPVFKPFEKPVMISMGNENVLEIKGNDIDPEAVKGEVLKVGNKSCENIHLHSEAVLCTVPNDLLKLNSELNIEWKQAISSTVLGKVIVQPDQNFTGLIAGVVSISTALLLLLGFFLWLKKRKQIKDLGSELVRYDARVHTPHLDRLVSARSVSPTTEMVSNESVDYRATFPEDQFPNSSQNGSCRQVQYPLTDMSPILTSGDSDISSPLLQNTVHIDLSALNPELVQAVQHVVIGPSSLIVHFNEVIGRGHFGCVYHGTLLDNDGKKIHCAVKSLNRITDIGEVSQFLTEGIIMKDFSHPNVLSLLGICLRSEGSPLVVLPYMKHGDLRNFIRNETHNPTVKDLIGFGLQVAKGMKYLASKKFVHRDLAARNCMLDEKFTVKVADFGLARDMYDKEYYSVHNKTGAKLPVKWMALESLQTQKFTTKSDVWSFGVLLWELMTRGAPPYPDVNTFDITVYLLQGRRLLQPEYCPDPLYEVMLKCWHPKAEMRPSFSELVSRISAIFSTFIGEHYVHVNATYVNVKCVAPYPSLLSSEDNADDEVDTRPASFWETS
T2 sequence (P08581 960-1390): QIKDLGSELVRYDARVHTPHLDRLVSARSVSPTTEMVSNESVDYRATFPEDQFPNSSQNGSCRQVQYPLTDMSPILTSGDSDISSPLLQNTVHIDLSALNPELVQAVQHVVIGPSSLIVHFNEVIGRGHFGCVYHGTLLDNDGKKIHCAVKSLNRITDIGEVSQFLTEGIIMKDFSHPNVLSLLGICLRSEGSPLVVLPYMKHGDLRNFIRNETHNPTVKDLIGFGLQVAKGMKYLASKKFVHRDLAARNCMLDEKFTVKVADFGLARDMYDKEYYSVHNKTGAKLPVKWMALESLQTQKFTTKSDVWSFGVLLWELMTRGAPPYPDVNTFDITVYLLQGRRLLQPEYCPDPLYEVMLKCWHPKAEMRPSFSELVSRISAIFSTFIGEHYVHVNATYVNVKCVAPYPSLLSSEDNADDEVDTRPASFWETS

`Cc1n[nH]c2ccc(C3C(C#N)=C(CCC(F)(F)F)NC(C(F)F)=C3C#N)cc12` (centres unmarked) [Example 14, 2-(Difluoromethyl)-4-(3-methyl-1H-indazol-5-yl)-6-(3,3,3-trifluoropropyl)-1,4-dihydropyridine-3,5-dicarbonitrile] gave an IC50 [1] of 17 nM.

`CCC1=C(C#N)C(c2ccc3[nH]nc(C)c3c2)C(C#N)=C(C(F)F)N1` (centres unmarked) [Example 13, 2-(Difluoromethyl)-6-ethyl-4-(3-methyl-1H-indazol-5-yl)-1,4-dihydropyridine-3,5-dicarbonitrile] gave an IC50 [1] of 9 nM and a Papp A→B at 2 h, 2 μM [2] of 25.9 ×10⁻⁶ cm/s.

In the case of `N#CC1=C(CCC(F)(F)F)NC(C(F)(F)F)=C(C#N)C1c1ccc2[nH]ncc2c1` (centres unmarked) [Example 16, 4-(1H-Indazol-5-yl)-2-(trifluoromethyl)-6-(3,3,3-trifluoropropyl)-1,4-dihydro-pyridine-3,5-dicarbonitrile], the IC50 [1] is reported as 29 nM.

Compound `Cc1n[nH]c2cc(F)c(C3C(C#N)=C(CCC(F)(F)F)NC(C(F)F)=C3C#N)cc12` (racemic) [Example 10, 2-(Difluoromethyl)-4-(6-fluoro-3-methyl-1H-indazol-5-yl)-6-(3,3,3-trifluoropropyl)-1,4-dihydropyridine-3,5-dicarbonitrile] has an IC50 [1] of 26 nM and an IC50 [3] of 11 nM.

`Cc1n[nH]c2ccc(C3C(C#N)=C(CCC(C)C)NC(C(F)(F)F)=C3C#N)cc12` (racemic) [Example 1, 2-(3-Methylbutyl)-4-(3-methyl-1H-indazol-5-yl)-6-(trifluoromethyl)-1,4-dihydropyridine-3,5-dicarbonitrile] gave an IC50 [1] of 16 nM and a Papp A→B at 2 h, 2 μM [2] of 21.7 ×10⁻⁶ cm/s.

`CCC1=C(C#N)C(c2ccc3[nH]nc(C)c3c2)C(C#N)=C(C(F)(F)F)N1` (centres unmarked) [Example 4, 2-Ethyl-4-(3-methyl-1H-indazol-5-yl)-6-(trifluoromethyl)-1,4-dihydropyridine-3,5-dicarbonitrile] gave an IC50 [3] of 11 nM.

For `Cc1n[nH]c2cc(F)c(C3C(C#N)=C(CCC(F)(F)F)NC(C(F)(F)F)=C3C#N)cc12` (racemic) [Example 7, 4-(6-Fluoro-3-methyl-1H-indazol-5-yl)-2-(trifluoromethyl)-6-(3,3,3-trifluoropropyl)-1,4-dihydro-pyridine-3,5-dicarbonitrile], the IC50 [1] was 52 nM and the Papp A→B at 2 h, 2 μM [2] was 20.4 ×10⁻⁶ cm/s.
